In patent US5750540A, “1,4-di-substituted piperidine derivatives” (Banyu Pharmaceutical Co., Ltd., priority 1995, dated 1998):

Legend:
[1] = molecular target: T1, muscarinic M3 receptor (Rattus norvegicus, UniProt P08483); assay: in vivo; design: from tissue; host or cells: living rat, airways; conditions: iv, read-out: Salivary secretion ID50
Protocol: (§1) Tests for antagonism against muscarinic M3 receptor (in vivo)
2) Tests for salivary secretion in rats
Five- to seven-weeks-old male rats of the Sprague-Dawley strain were anesthetized with sodium pentobarbital (65 mg/kg, i.p.), and a cannula was inserted into the right jugular vein for purposes of drug administration. A test compound was administered intravenously. Five minutes later, carbachol (10 μg/kg, i.v.) was administered to evoke salivary secretion. For each rat, saliva collection was started immediately after carbachol administration and continued for ten minutes. This was carried out by inserting glass capillaries (Drummond, 100 μl) into the oral cavity of the rat at intervals of one minute. The amount of collected saliva was determined on the assumption that a length of 75 mm of the glass capillary corresponded to 100 μl. Physiological saline was used in the control group. The ID50 value was calculated from the dose-response curve of the test compound using probit analysis and defined as the drug dose that inhibited the carbachol-induced salivation in the control group by 50%.

[2] = molecular target: T1, muscarinic M3 receptor; assay: Intestinal propulsion in rats (charcoal meal); assay type: in vivo; design: from tissue; conditions: i.v., 15% inhibition of intestinal propulsion
Protocol: as §1
5) Tests for intestinal propulsion in rats
Five- to seven-weeks-old male rats of the Sprague-Dawley strain were fasted overnight. A test compound was administered intravenously to the animals. Five minutes later, 1 ml per animal of a 5% charcoal suspension was administered orally. Thirty minutes after administration of the charcoal meal, the rats were sacrificed by decapitation, and the gastrointestinal tract was removed. The distance from the pylorus to the point of arrival of the charcoal meal was measured and the transportation rate was calculated. The ID15 value was calculated from the dose-response curve using probit analysis and defined as the drug dose that inhibited intestinal propulsion in the control group by 15%.

[3] = molecular target: T2, bladder M3 receptors (Rattus norvegicus, UniProt P08483); assay: Antagonism against bladder M3 receptors in an isolated rat bladder; conditions: in vitro, agonist carbachol
T2 construct: the bladder was excised; from tissue; host or cells: isolated rat bladder
Protocol: 5) Tests for antagonism against the bladder M3 receptors in an isolated rat bladder
These tests were performed according to an ordinary method. A male SD strain rat (weighing 200-400 g) was killed by exsanguination, and the bladder was excised. This bladder axially cut into eight parts to make bladder preparations. A preparation was suspended in a Magnus tube filled with 5 ml of Krebs-Henseleit nutrient solution (gassed with 95% O2 -5% CO2 and kept at 32° C.) with an initial tension of 0.5 g. The tension of the preparation was recorded isometrically. After being equilibrated for an hour, the preparation was made to contract twice by treatment with 10^-4 M carbachol, and the second contraction induced by carbachol was used as the reference contraction. After the preparation was washed with fresh solution to make a return to the base line, a test compound was administered thereto (or no treatment was made). Ten minutes later, carbachol (10^-8 to 10^-3 M) was cumulatively administered from the lower-most concentration in three-fold increasing doses to obtain a dose-response curve. The dose-response curve was constructed by expressing responses as percentages based on the reference contraction of the preparation. The antagonistic potency (KB value) of the test compound was determined from the degree of shift of the dose-response curve obtained by treatment with the test compound.

T1 sequence (P08483 whole entry): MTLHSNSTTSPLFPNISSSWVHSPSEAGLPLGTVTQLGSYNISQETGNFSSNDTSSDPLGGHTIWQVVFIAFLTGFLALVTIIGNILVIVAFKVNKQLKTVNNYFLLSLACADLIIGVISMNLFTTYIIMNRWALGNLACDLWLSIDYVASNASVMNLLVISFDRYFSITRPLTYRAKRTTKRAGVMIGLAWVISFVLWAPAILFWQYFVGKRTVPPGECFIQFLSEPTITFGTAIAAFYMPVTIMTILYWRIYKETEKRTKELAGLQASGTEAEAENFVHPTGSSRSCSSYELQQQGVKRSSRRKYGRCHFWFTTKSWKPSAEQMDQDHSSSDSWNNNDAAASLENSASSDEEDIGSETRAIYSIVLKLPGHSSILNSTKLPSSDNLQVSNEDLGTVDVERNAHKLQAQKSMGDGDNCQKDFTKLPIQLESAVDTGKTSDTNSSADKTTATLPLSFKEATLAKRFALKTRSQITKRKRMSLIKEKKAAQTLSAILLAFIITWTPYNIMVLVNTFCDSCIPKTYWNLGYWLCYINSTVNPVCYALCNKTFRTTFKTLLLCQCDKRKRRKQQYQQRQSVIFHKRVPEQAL
T2 sequence (P08483 whole entry): as above

CC(C)=CCCN1CCC(NC(=O)C(O)(c2ccccc2)C2CCC2)CC1 (stereo not drawn) [Example 1, N-[1-(4-methyl-3-pentenyl)-piperidin-4-yl]-2-cyclobutyl-2-hydroxy-2-phenylacetamide]
ED50 [1]: 0.19 mg/kg
Enterokinesis ID15 [2]: 0.67 mg/kg i.v.
Kb [3]: 31 nM
